Measurements reported in patent US20130046098A1, “KINASE INHIBITORS” (THE UNIVERSITY OF MANCHESTER, priority 2009, published 2013).
“Also recorded” adds a separate entry of the source.

What was measured:
recombinant ROCK = experiment: In vitro ROCK activity assay (Cyclex Rho-kinase immunoassay); assay type: biochemical; conditions: FIG. 2A bar chart
Experimental: A specific assay was used to evaluate the ability of the compounds of the invention to inhibit ROCK. Rho-kinase activity was determined using an immunoassay as recommended by the manufacturer (Cyclex Co., Ltd., Nagano, Japan). Briefly, […] samples containing 10 mUnit (1 Unit incorporates 1 nmol of phosphate into GST-MBS/MYPT1 per minute at 30° C.) of recombinant ROCK with or without the compounds of the invention were aliquoted into a 96-well plate (100 μl/well), pre-coated with threonine Rho-kinase phosphorylation substrate. After 30 min incubation at 30° C., the plate was washed three times with PBS then incubated with 100 μl/well of HRP conjugated anti-phospho-specific antibody for 1 h at room temperature. The amount of phosphorylated substrate was determined by adding 100 μl/well of substrate reagent for 10 min and the reaction was terminated by adding 100 μl/well of the stop solution. The absorbance was measured on a 96-well plate reader at 450 nm (Dynex Technologies, West Sussex, UK). Each data point was performed in triplicate and the assay was repeated twice.

p38 alpha (MAPK14) = p38 alpha (MAPK14) (Homo sapiens, UniProt Q16539); experiment: SelectScreen in vitro kinase profiling, single point
[1] = system: GEF16 transfected NIH3T3 cells; experiment: Cell proliferation assay (Celltiter Aq96); assay type: cell-based, mouse; conditions: 10 μM, FIG. 3B, P>0.05
Experimental: FIG. 1D is a bar chart showing the results of Cell AQ^96 assessment of the growth of GEF16 and vector transfected cells seeded in a 96 well plate at 1×10^3 cells per well. These were incubated for 3 days followed by addition of reagent to determine the starting point for the assay. 10 μM of either Y27632 or DMSO were then added to wells containing both cell types and Cell AQ^96 absorbance measured at 6, 8 and 10 days. At day 3 cells were 100% confluent which was determined by phase contrast visual inspection of the cultures at ×20 magnification;
Cell proliferation was investigated using Celltiter Aq^96 reagent (Promega, Southampton, UK) according to the manufacturer's protocol. Cells were seeded into a 96-well plate at a density of 1×10^3 cells/well allowing 3 wells per data point and allowed to attach for a set period. Following this, the initial starting point 490 nm absorbance was determined by adding 20 μl of Aq^96 reagent to each well and incubating for 4 h at 37° C. in 5% CO2 (96-well plate reader, Dynex Technologies, West Sussex, UK). The various compounds (Y27632 or compounds of the invention) or DMSO control were then added to duplicate wells and the absorbance determined in the same way at the time points indicated. Each data set shown is representative of three separate experiments.

[2] = system: polyclonal Ras transformed NIH3T3 cells; experiment: Co-culture of Ras transformed cells with non-transformed cells / Ras colony formation; assay type: cell-based, mouse
Experimental: FIG. 5 illustrates that the growth suppressive effects of YA1 on single transformed colony derived GEF16 NIH3T3 cells and polyclonal Ras transformed NIH3T3 cells are more pronounced when these are co-cultured with non-transformed cells. In FIG. 5A single transformed colonies were picked from 10 day cultures of GEF16 polyclonal NIH3T3 cells and expanded. These cells were then seeded at 2.0×10^5 cells per 30 mm dish and treated with 10 μM of YA1 or DMSO control either immediately or following 10 days in culture. Duplicate wells were harvested for flow cytometry. In FIG. 5B a total of 2×10^5 cells per well were plated consisting of increasing numbers of non-transformed vector cells co-cultured with decreasing numbers of single transformed colony derived GEF16 cells. These were treated with 10 μM of either YA1 or DMSO for 10 days. […]
Transformed cell populations were produced by transfection with constructs causing cellular expression of GEF16 or Ras as follows. The full-length GEF16 open reading frame (Accession NM_014448) was PCR amplified, sequence verified and subcloned into the mammalian expression vector pCMVTag (Invitrogen Ltd., Paisley, UK) to produce a construct pCMVTag-GEF16 cDNA. […]

ROCK2 = ROCK2 (Homo sapiens, UniProt O75116); experiment: SelectScreen additional single point analysis; conditions: 10 μM
[3] = system: single transformed colony derived GEF16 NIH3T3 cells; experiment: Growth of cell populations derived from single GEF16 transformed colonies; assay type: cell-based, mouse
Experimental: FIG. 5 illustrates that the growth suppressive effects of YA1 on single transformed colony derived GEF16 NIH3T3 cells and polyclonal Ras transformed NIH3T3 cells are more pronounced when these are co-cultured with non-transformed cells. In FIG. 5A single transformed colonies were picked from 10 day cultures of GEF16 polyclonal NIH3T3 cells and expanded. These cells were then seeded at 2.0×10^5 cells per 30 mm dish and treated with 10 μM of YA1 or DMSO control either immediately or following 10 days in culture. Duplicate wells were harvested for flow cytometry. In FIG. 5B a total of 2×10^5 cells per well were plated consisting of increasing numbers of non-transformed vector cells co-cultured with decreasing numbers of single transformed colony derived GEF16 cells. These were treated with 10 μM of either YA1 or DMSO for 10 days. In producing the results shown in FIG. 5C the same co-culture experiment described in connection with FIG. 5B was carried out substituting polyclonal Ras transformed NIH3T3 cells for GEF16 transformed cells.
Single transformed colonies were picked from GEF16 polyclonal NIH3T3 cells and expanded according to the methods described above. Expanded cell populations were plated and a compound of the invention (YA1) added either immediately or after 10 days when the cells were post-confluent.

Chain of p38 alpha (MAPK14) (Q16539 whole entry): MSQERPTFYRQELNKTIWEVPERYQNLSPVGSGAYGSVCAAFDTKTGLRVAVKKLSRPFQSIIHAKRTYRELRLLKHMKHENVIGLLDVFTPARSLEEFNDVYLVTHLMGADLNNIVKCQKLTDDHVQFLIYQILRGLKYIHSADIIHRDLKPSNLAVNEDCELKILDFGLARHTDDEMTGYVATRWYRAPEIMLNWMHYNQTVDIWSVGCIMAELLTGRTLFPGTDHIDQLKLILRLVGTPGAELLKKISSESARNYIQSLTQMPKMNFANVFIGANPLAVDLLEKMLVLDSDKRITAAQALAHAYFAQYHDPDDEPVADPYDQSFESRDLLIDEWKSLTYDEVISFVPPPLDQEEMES
Chain of ROCK2 (O75116 whole entry): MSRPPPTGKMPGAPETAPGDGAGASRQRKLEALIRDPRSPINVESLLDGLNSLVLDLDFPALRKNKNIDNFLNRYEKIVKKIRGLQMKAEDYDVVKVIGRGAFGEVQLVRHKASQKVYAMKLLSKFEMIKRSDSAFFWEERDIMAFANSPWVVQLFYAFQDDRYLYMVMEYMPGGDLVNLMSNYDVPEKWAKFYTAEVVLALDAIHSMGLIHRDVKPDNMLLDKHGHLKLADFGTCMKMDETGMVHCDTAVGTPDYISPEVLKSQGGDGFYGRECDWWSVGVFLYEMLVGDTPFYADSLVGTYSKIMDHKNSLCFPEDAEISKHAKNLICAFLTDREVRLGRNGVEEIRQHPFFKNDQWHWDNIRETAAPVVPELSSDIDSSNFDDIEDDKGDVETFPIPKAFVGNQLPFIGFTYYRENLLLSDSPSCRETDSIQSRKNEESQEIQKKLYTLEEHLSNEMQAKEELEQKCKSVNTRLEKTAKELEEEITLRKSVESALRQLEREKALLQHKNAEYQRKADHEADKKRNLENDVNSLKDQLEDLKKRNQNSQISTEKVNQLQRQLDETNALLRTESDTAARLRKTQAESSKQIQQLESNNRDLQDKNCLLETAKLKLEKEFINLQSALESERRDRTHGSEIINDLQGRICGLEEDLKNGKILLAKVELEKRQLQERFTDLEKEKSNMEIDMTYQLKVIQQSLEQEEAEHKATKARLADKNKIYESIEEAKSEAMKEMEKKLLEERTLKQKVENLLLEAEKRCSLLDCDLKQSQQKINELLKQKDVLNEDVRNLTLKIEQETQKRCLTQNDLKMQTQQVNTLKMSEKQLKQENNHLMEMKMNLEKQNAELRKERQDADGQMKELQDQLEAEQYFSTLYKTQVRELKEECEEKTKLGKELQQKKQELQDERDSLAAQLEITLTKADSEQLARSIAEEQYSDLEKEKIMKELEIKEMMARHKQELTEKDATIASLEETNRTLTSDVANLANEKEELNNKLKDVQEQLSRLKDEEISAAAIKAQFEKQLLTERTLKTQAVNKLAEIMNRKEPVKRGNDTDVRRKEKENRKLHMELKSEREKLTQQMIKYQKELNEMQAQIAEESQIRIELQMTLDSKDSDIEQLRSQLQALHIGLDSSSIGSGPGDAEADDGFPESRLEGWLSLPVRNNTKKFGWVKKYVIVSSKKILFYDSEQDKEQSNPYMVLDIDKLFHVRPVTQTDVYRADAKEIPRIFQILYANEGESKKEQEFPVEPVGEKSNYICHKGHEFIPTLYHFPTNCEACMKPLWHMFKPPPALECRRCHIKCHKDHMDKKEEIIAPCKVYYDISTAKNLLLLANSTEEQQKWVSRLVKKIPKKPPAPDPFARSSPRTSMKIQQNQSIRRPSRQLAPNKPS

- inhibition at 10 µM (p38 alpha (MAPK14); read-out: inhibitory activity against p38 alpha (MAPK14)): 72%
- activity against ROCK2 (ROCK2): less activity against ROCKs than YA2
Structure (SMILES): CC(C)(C)OC(=O)NCc1ccc(C(=O)Nc2ccncc2)cc1 [YA1, 4-(Pyridin-4-ylcarbamoyl)benzylcarbamic acid tert-butyl ester]
- ROCK inhibitory activity compared to Y27632 (recombinant ROCK): lower ROCK inhibitory activity; also recorded: significantly less activity against ROCK than did their structural analogue Y27632
- activity against p38 (p38 alpha (MAPK14); additional single point analysis, 10 μM): significant activity against p38, HGK and Aurora A
- growth rates of sub-confluent GEF16 polyclonal cells versus DMSO control [1]: no detectable difference in growth rates
- growth suppression / colony formation of Ras transformed NIH3T3 cells ([2]; 10 μM, 10 days, co-culture with non-transformed cells): same growth suppressive effects on Ras transformed NIH3T3 cell colonies as with GEF16 transformed cells; also recorded: highly effective at preventing the formation of Ras transformed NIH3T3 colonies
- contact inhibition and polarity of Ras transformed cells (phase contrast images) ([2]; YA1 treated): regain both contact inhibition and polarity
- effect on single colony derived GEF16 cells, added to post-confluent cultures ([3]; 10 μM, added after 10 days in culture): no discernible effect when compared to controls
- saturation density of single colony derived GEF16 cells, added to low density cultures ([3]; 10 μM, added immediately): modest effect when added to low density cultures
- effect on single colony derived GEF16 transformed cells grown in the absence of non-transformed cells ([3]; FIG. 5A): little or no effect
